According to US9765115B2, “Inhibitors of metastasis, methods of generating such inhibitors and their therapeutic applications” (Board of Supervisors of Louisiana State University acting …, priority 2011, dated 2017):
“Also recorded” adds a separate entry of the source.

Experiments:
[1] = tested on: calcitonin receptor (CTR); assay: cAMP accumulation (radioimmunoassay) in PC-3 CTRwt and PC-3 CTRΔESS cells; assay type: cell-based, human; details: 3 min
Protocol: PC-3CTRwt and PC-3CTRΔESS cells were treated with/without 50 nM CT for three min, washed and harvested in lysis buffer (50 mM Tris, pH 7.5, containing 5 mM EDTA, 50 mM NaF, 1 mM sodium pyrophosphate, 0.5 mM EGTA, 10 mM β-mercaptoethanol, leupeptin, 1 μg/ml; and aprotinin, 1 μg/ml). The lysates were analyzed for cAMP levels by radioimmunoassay (Perkin Elmer, Shelton, Conn.).
FIG. 1C depicts photomicrographs showing CTRwt and CTRΔESS (a mutant) localized to the plasma membrane (at 400×) in PC-3 cells. To examine the ability of CTRwt and CTRΔESS to activate its G protein-coupled effectors, the effect of 50 nM CT was examined on cAMP accumulation and PKA and PKC activity. […] FIG. 1D depicts the effect of 50 nM CT on cAMP accumulation in PC-3 CTRwt and PC-3 CTRΔESS cells stimulated with or without 50 nM CT for 3 min. The cells were lysed, and the lysates were analyzed for cAMP levels by radioimmunoassay (*p<0.01 (paired t-test)).
The effect of CT on cAMP was further tested in a dose-response study where the response to CT at multiple doses (between 0-100 nM) was examined. FIG. 1G depicts cAMP accumulation in PC-3 CTR and PC-3 CTRΔESS cells in response to CT at multiple doses (between 0-100 nM) stimulated for 3 min (*p<0.01 (One-way ANOVA and Newman-Keuls test)).

[2] = tested on: PC-3M cells expressing ZO-1-wt or its ΔPDZ mutants; assay: Transepithelial electric resistance (TER); assay type: cell-based; details: CT 50 nM
Protocol: Cells were plated on Transwell filters (0.4 μm pore size) and grown to confluency in complete medium (RPMI1640 containing 10% fetal bovine serum, 20 mM HEPES and antibiotics). TER of the cultures (in duplicate wells) was measured at several time intervals with EVOM volt-ohm meter as previously described (Shah et al, 2009). The readings were corrected for blank (TER values from the filter in bathing medium). The integrity and cell density of monolayers were carefully monitored.
Since ZO-1 contains three PDZ domains, which of these interacts with CTR-C PDZ-binding motif was analyzed. PC-3M cells was used for this study because they are PC-3-derived, but co-express both CT and CTR, and are suitable to examine modulation of CTR action in response to mutations in ZO-1 (Chien et al., 2001). To knock down endogenous ZO-1 expression, PC-3M cells were stably transfected with constitutive ZO-1 shRNA expression vector (pSuper.neo system; shRNA duplex-5′-GACGAGAUAAUCCUCAUUUtt-3′ (SEQ ID NO:8) corresponding to 596-614 bp of ZO-1 mRNA). Since the constitutive presence of ZO-1 siRNA in PC-3M cells could interfere with the re-expression of ZO-1 wt or its ΔPDZ mutants, ZO-1 (wt or ΔPDZ mutants) cDNA expression vectors refractory to ZO-1 RNAi were generated by introducing a silent mutation in RNAi target sequence in the ZO-1 transgene. […]

ZO-1 and claudin 3 = assay: In vivo 32P phosphorylation and phosphoserine/phosphothreonine immunoblotting; assay type: cell-based
Protocol: Postconfluent cells cultured were serum-starved overnight, and then labeled with [^32P]orthophosphate (NEN/DuPont Chemicals) in phosphate-free serum-free Dulbecco's modified Eagle's medium for 3 hours at 37° C. The cells were then treated with calcitonin (CT) (50 nM for 10 min, 37° C.). When used, myristoylated PKA-inhibitory peptide (mPKI; 100 nM) was added 15 min prior to the addition of CT (50 nM). The cells were then washed with ice-cold phosphate-buffered saline, and lysed in 700 μl lysate buffer. The lysate was cleared by centrifugation for 10 min at 10,000×g. For immunoprecipitation, the supernatant was incubated overnight with primary antibody, and Protein A-Sepharose (40 μl, GE Healthcare) was added next morning. Washed immune complexes were fractionated on SDS-PAGE. The gels were either dried and exposed to film or transferred onto polyvinylidene difluoride membranes and immunoblotted as described above.
The IPs were processed for immunoblotting with either anti-phosphoserine or anti-phosphothreonine antibodies followed by secondary antibody and developed with ECL To control for protein loading and transfer, the blots were stripped and reprobed with the immunoprecipitating antibody.
To directly examine the involvement of PKA in CTR action on TJ disassembly, the in vivo incorporation of ^32PO4 in TJ proteins was examined. […] Arrows indicate location of ZO-1 and claudin-3. FIG. 17B depicts the total amount of ^32P-radioactivity of IP bands of ZO-1 and claudin from cells treated with CT (CT) and without treatment (Control, C). […] The results of occludin were inconclusive (data not shown).
Next, the phosphorylated amino acids in these proteins were identified by probing ZO-1 and claudin 3 immunoprecipitates with antisera against phosphoserine, phosphothreonine and phosphotyrosine. […] The blots were probed by antibodies to phosphoserine (Ser), phosphothreonine (Thr), and phosphotyrosine (Tyr). […] There was complete absence of phosphotyrosines in either of these TJ proteins, consistent with the role of PKA in CTR-stimulated phosphorylation of ZO-1 and claudin 3.
As shown above, the interaction of CTR with ZO-1 occurs between CTR-C PDZ-binding motif and PDZ3 domain of ZO-1. […] To examine the role of CTR-C PDZ-binding motif on phosphorylation of TJ proteins, the serine/threonine phosphorylation of ZO-1 and claudin 3 was analyzed in PC-3CTRwt and PC-3CTRΔESS cells. […] The immunoprecipitates were then probed with antibodies to phosphoserine. […] The immunoprecipitates were then probed with antibodies to phosphothreonine. The IPs of ZO-1 and claudin 3 were immunoblotted and probed for phosphoserine and phosphothreonine.

Sequence of calcitonin receptor (CTR) (P30988 25-470 limits assumed): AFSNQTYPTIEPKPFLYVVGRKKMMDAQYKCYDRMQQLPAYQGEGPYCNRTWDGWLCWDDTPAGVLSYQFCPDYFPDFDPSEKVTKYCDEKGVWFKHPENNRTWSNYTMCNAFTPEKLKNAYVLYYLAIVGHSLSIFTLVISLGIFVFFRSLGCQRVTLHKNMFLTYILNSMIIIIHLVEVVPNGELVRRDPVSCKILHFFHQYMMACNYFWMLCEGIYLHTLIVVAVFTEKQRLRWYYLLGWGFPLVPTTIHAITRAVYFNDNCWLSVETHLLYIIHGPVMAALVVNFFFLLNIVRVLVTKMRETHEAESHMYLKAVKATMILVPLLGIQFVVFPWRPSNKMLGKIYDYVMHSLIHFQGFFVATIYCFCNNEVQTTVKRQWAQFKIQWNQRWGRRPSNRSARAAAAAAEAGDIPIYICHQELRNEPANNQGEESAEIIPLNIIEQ

calcitonin [CT]
cAMP accumulation ([1]; 50 nM CT, PC-3 CTRwt and PC-3CTRΔESS cells): stimulated cAMP production | cAMP accumulation, dose-response ([1]; CT 0-100 nM, CTRwt and CTRΔESS cells, all doses): significantly increased | TER ([2]; cells expressing ZO-1-ΔPDZ3): no decrease in TER | TER ([2]; cells re-expressing ZO-1-wt, ΔPDZ1 or ΔPDZ2): remarkable decline in TER | 32P incorporation in immunoprecipitated ZO-1 and claudin 3 (ZO-1 and claudin 3; CT 50 nM): ten-fold increase | incorporation of 32PO4 in ZO-1 and claudin 3 (autoradiogram) (ZO-1 and claudin 3; CT 50 nM, 10 min): remarkable increase | serine/threonine phosphorylation of ZO-1 and claudin 3 (ZO-1 and claudin 3; CT 50 nM, PC-3CTRwt cells): stimulated phosphorylation of serines and threonines in ZO-1 and only threonines in claudin-3; also recorded: detectable increase | phosphorylation of ZO-1 and claudin 3 (ZO-1 and claudin 3; CT, PC-3CTRΔESS cells): did not induce phosphorylation
